The text below walks through data of patent publication US5945407A, “Methods and compositions using butyrate esters of threitol” (Vertex Pharmaceuticals, Incorporated, priority 1998, dated 1999).

Series [1] has as its system tumor and leukemia in mice. The settings on record: cited from earlier work.
For a further series, the system named is leukemia patients. To be noted: by inducing cell differentiation; cited from earlier work.
The next series is described as follows: in vitro. To be noted: cell culture.
Series [2] deals with Cultured Erythroleukemic Cells. The settings on record: in vitro; cited from earlier work.
The nature of series [3]: Oral bioavailability and sustenance of plasma concentrations of butyric acid in rats after oral gavage. In kind it is in vivo, rats (Sprague Dawley). The settings on record: rat; for AUC: butyric acid in plasma, oral gavage, mean ± SD. Here is the method:
We evaluated oral bioavailability and sustenance of plasma concentrations of butyric acid in rats receiving tetrabutyrate esters of threitol and tributyrin by oral gavage.
This assay was carried out according to the protocol described in Daniel et al., Clinca Chimica Acta., 181, pp. 255-64 (1989); Planchon et al., J. Pharm. Sci., 82, pp. 1046-48 (1993); Pouillart et al., J. Pharm Sci., 81, pp. 241-44 (1992). Each compound was tested in five to six rats (Sprague Dawley; Harlan Labs, Inc.) weighing approximately 300 grams each. In that table, data are expressed as mean ± standard deviation (range) and were compared using the unpaired Student's t-test.

A further series relates to fetal hemoglobin. To be noted: sickle cell anemia patients; cited from earlier work.
The conditions of series [4]: leukemia patients; continuous infusions of sodium butyrate; cited from earlier work.
Series [5] can be described thus: Pharmacokinetic variability of serum butyrate (standard deviation of a parameter such as Cmax or AUC divided by its mean). In kind it is in vivo. From the text: Pharmacokinetic variability is the measure of differences in the serum butyrate concentrations between different patients administered the same amount of butyrate esters of threitol. Pharmacokinetic variability is quantified by dividing the standard deviation for a given parameter, such as Cmax or AUC, by the mean value of that parameter, in a series of patients given dose the same dosage of butyrate ester of threitol.

A word on the AUC: it is the area under the concentration-time curve, a measure of exposure. Read a high AUC as high exposure.

A value given as a limit tells only on which side of the number the result lay.

Take `CCCC(=O)O` [arginine butyrate]: in series [1], the “anti-tumor and anti-leukemia effects” value was “anti-tumor and anti-leukemia effects”.

`CCCC(=O)O` [butyric acid]: the “effect in leukemia patients” value in the series with leukemia patients was “promising effects”. This molecule also showed an MCC in the series “in vitro” greater than 3 mM. For the same molecule, the cell differentiation result in series [2] is “induces cell differentiation”.

For the molecule `CCCC(=O)OC[C@@H](OC(=O)CCC)[C@@H](COC(=O)CCC)OC(=O)CCC` [d-threitol tetrabutyrate ester], in series [3] (2.8 gm/kg), the AUC stood at 900 ± 260 µM·h.

Consider `NC(=O)NO` [hydroxyurea], for which, in the series on fetal hemoglobin, the fetal hemoglobin production entry was “stimulates fetal hemoglobin production” and the sickling crisis entry was “reduces sickling crisis”.

In series [3] (2.4 gm/kg), `CCCC(=O)OC[C@H](OC(=O)CCC)[C@H](COC(=O)CCC)OC(=O)CCC` [l-threitol tetrabutyrate ester] yielded an AUC of 1200 ± 400 µM·h.

With `CCCC(=O)[O-].[Na+]` [sodium butyrate], the “plasma half-life of butyric acid” value in series [4] was 6 min.

On to `CCCC(=O)OC[C@H](OC(=O)CCC)[C@@H](COC(=O)CCC)OC(=O)CCC` [tetrabutyrate ester of mesothreitol], for which the pharmacokinetic variability in series [5] (in vivo) is on record as 35-40%.

With `CCCC(=O)OCC(COC(=O)CCC)OC(=O)CCC` [tributyrin], the pharmacokinetic variability in series [5] (standard deviation / mean of a parameter such as Cmax or AUC) is recorded as 70%. The AUC in series [3] (3.0 gm/kg) worked out at 1590 ± 930 µM·h. The “oral bioavailability (to provide therapeutic plasma levels of butyric acid)” value in series [3] (oral) is on record as “orally bioavailable”. Besides, in series [3] (oral, tetrabutyrate esters of threitol vs tributyrin), the “variability of release of butyric acid in vivo” value is recorded as “more variable”.
